For one assay, the target named is human TLR7 (Homo sapiens (Human), UniProt Q9NYK1). The assay can be described thus: HEK293-Blue-hTLR-7 cells assay (SEAP reporter, NF-κB activation). In kind it is cell-based. Particulars: HEK293-Blue-hTLR-7 cells, 20 hours incubation, SEAP reporter; read-out: HEK293- hTLR-7 EC50. The source says: HEK293-Blue-hTLR-7 Cells Assay: A stable HEK293-Blue-hTLR-7 cell line was purchased from InvivoGen (Cat.#: hkb-htlr7, San Diego, Calif., USA). These cells were designed for studying the stimulation of human TLR7 by monitoring the activation of NF-κB. A SEAP (secreted embryonic alkaline phosphatase) reporter gene was placed under the control of the IFN-β[…] minimal promoter fused to five NF-κB and AP-1-binding sites. The SEAP was induced by activating NF-κB and AP-1 via stimulating HEK-Blue hTLR7 cells with TLR7 ligands. Therefore the reporter expression was regulated by the NF-κB promoter upon stimulation of human TLR7 for 20 hours. The cell culture supernatant SEAP reporter activity was determined using QUANTI-Blue™ kit (Cat.#: rep-qb1, Invivogen, San Diego, Calif., USA) at a wavelength of 640 nm, a detection medium that turns purple or blue in the presence of alkaline phosphatase. […] Then 20 μL of the supernatant from each well was incubated with 180 μL Quanti-blue substrate solution at 37° C. for 2 hours and the absorbance was read at 620˜655 nm using a spectrophotometer. […] Hiroaki Hemmi et al, Nature Immunology 3, 196-200 (2002).

The target in a further assay is murine TLR7 (Mus musculus (Mouse), UniProt P58681). The assay can be described thus: HEK293-Blue-mTLR7 cell assay (SEAP reporter). It is filed as cell-based. Particulars: HEK293-Blue-mTLR7 cells, 20 hours incubation; read-out: EC50 of murine TLR7 activation. On the procedure:
FIG. 1: Example 1-A activates murine TLR7 in a HEK-Blue-mTLR assay. The cells were incubated with Example 1-A and a positive control GS-9620 at indicated concentrations for 20 hours. The activation of murine TLR7 was measured using a Quanti-Blue assay.
TLR7 Agonist Example 1-A Activates Murine TLR7
The potency of the TLR7 agonist Example 1-A activating murine TLR7 was assessed using a stable HEK293-Blue-mTLR7 cell line available from InvivoGen (Cat.#: hkb-mtlr7, San Diego, Calif., USA). Similar to the HEK293-Blue-hTLR7 as described in Example 43, the HEK293-Blue-mTLR7 is designed for studying the stimulation of murine TLR7 by monitoring the activation of NF-κB. A SEAP reporter gene was placed under the control of the IFN-β minimal promoter fused to five NF-κB and AP-1-binding sites. The SEAP expression was induced by the activation of NF-κB and AP-1 upon stimulation of murine TLR7 with TLR7 ligands. SEAP expression in cell culture supernatant was determined using a QUANTI-Blue™ kit (Cat.#: rep-qb1, Invivogen, San Diego, Calif., USA), a detection medium that turns purple/blue in the presence of alkaline phosphatase, at a wavelength of 655 nm. […]

Another assay relates to murine PBMC. The assay can be described thus: In vitro cytokine induction in murine PBMC (multiplex assay). The settings on record: 2 to 10 μM, 24 hours, dose-dependent.

Chain of human TLR7 (Q9NYK1 27-1049): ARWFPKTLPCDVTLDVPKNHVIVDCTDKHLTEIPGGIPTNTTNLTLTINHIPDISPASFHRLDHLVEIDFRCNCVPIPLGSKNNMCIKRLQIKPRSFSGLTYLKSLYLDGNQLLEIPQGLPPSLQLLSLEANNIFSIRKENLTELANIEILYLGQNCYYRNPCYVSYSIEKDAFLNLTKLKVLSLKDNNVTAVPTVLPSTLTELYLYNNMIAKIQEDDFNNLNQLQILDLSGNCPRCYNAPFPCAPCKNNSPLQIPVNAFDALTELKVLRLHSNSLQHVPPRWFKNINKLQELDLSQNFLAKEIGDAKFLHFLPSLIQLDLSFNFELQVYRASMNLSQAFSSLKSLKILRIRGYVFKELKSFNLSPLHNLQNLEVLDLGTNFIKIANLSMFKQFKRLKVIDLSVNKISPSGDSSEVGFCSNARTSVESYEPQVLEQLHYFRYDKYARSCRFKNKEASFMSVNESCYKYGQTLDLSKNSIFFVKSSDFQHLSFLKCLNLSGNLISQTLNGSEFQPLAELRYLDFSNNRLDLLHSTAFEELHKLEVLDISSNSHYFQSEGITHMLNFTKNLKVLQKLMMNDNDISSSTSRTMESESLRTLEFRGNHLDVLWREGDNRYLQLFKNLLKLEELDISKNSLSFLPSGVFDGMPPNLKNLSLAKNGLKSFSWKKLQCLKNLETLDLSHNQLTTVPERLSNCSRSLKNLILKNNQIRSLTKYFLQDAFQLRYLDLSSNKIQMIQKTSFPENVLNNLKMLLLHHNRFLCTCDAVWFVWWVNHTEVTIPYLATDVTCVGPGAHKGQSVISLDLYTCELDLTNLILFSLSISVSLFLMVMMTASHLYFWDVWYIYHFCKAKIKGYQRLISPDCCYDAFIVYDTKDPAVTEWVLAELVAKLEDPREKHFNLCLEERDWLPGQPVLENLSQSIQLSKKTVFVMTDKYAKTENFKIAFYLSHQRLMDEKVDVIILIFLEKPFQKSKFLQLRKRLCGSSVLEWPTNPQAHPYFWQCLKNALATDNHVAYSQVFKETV
Chain of murine TLR7 (P58681 27-1050 limits assumed): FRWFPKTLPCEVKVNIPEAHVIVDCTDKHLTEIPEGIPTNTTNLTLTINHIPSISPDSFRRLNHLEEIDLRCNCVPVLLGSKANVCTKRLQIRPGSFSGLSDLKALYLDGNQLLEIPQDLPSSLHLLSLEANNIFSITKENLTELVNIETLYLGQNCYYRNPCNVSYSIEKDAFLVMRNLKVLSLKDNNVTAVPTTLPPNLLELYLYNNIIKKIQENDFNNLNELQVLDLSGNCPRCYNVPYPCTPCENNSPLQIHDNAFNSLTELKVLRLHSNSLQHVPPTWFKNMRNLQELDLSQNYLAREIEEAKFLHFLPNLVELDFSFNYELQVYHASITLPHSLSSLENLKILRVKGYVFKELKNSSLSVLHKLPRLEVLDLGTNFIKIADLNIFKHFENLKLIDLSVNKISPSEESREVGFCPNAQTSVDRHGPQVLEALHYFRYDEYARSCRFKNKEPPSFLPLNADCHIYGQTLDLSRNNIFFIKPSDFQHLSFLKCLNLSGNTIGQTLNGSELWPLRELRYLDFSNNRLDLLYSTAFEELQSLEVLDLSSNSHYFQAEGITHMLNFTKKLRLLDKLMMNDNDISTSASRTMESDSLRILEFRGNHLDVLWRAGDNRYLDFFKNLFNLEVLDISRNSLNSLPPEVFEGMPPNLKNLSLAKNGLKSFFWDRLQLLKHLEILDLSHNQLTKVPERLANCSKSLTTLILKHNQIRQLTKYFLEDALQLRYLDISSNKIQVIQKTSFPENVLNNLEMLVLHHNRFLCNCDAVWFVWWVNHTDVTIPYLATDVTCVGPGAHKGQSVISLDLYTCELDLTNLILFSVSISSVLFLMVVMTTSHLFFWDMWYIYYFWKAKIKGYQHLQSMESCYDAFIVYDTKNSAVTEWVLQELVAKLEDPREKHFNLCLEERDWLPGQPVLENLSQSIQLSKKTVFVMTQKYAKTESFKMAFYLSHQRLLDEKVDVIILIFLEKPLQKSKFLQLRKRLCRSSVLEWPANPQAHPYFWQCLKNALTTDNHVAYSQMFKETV
Description for murine PBMC: Supernatants were collected at 24 hour post treatment and cytokine levels in supernatants were assessed by a multiplex assay.
50 μL of cell culture medium was collected and analyzed with a 36 plex Procarta multiplex kit (ebioscience EPX360-26092-901, eBioscience), which measured the levels of 15 cytokine analytes, following the manufacturer's instruction.

In the case of `CCC(O)[C@@H]1C[C@@H](O)[C@H](n2c(=O)sc3c(=O)[nH]c(N)nc32)O1` (single isomer, unassigned) [Example 1-A], the EC50 on human TLR7 was 52 µM. At murine TLR7, the EC50 stood at 71.8 µM. In addition, in the assay on murine PBMC, the IFNα induction entry is given as “high levels”, the IL-6 induction entry was “high levels”, the IP10 induction result is on record as “high levels” and the TNFα induction entry was “high levels”.
